# Laboratory results from PubChem BioAssay AID1963427 (Molecular Pharmacology Branch, DTP, NCI, 2024).
# pIC50: −log10 of the molar value.
# System: 317291-083-R-J1-PDC complex spheroid growth
# Test: Anticancer human tumor 317291-083-R-J1-PDC patient-derived soft tissue sarcoma cell line growth inhibition [Asc]
# Settings: for pIC50: curve of first compound; for viability, T/C: stronger effect = lower value
# Procedure, shortened: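 Spheroid model: tumor line + HUVEC + hMSC. Single agents and combinations; top conc. at/near clinical Cmax (10 microM if undetermined), half-log dilutions. DMSO stocks at 800-fold test concentration.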
# [1] = second compound 0.00316 µM, first compound 0.0316 µM
# [2] = second compound 0.00316 µM, first compound 0.1 µM
# [3] = second compound 0.00316 µM, first compound 0.316 µM
# [4] = second compound 0.00316 µM, first compound 1 µM
# [5] = second compound 0.00316 µM, first compound 3.16 µM
# [6] = second compound 0.00316 µM, first compound 10 µM
# [7] = second compound 0.01 µM, first compound 0.0316 µM
# [8] = second compound 0.01 µM, first compound 0.1 µM
# [9] = second compound 0.01 µM, first compound 0.316 µM
# [10] = second compound 0.01 µM, first compound 1 µM
# [11] = second compound 0.01 µM, first compound 3.16 µM
# [12] = second compound 0.01 µM, first compound 10 µM
# [13] = second compound 0.0316 µM, first compound 0.0316 µM
# [14] = second compound 0.0316 µM, first compound 0.1 µM
# [15] = second compound 0.0316 µM, first compound 0.316 µM
# [16] = second compound 0.0316 µM, first compound 1 µM
# [17] = second compound 0.0316 µM, first compound 3.16 µM
# [18] = second compound 0.0316 µM, first compound 10 µM
# [19] = second compound 0.1 µM, first compound 0.0316 µM
# [20] = second compound 0.1 µM, first compound 0.1 µM
# [21] = second compound 0.1 µM, first compound 0.316 µM
# [22] = second compound 0.1 µM, first compound 1 µM
# [23] = second compound 0.1 µM, first compound 3.16 µM
# [24] = second compound 0.1 µM, first compound 10 µM
# [25] = second compound 0.316 µM, first compound 0.0316 µM
# [26] = second compound 0.316 µM, first compound 0.1 µM
# [27] = second compound 0.316 µM, first compound 0.316 µM
# [28] = second compound 0.316 µM, first compound 1 µM
# [29] = second compound 0.316 µM, first compound 3.16 µM
# [30] = second compound 0.316 µM, first compound 10 µM
# [31] = second compound 1 µM, first compound 0.0316 µM
# [32] = second compound 1 µM, first compound 0.1 µM
# [33] = second compound 1 µM, first compound 0.316 µM
# [34] = second compound 1 µM, first compound 1 µM
# [35] = second compound 1 µM, first compound 3.16 µM
# [36] = second compound 1 µM, first compound 10 µM
# 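Also: compound exposure lasted seven days after spheroids formed for three days.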
# 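For viability, T/C in this document: 100% = DMSO vehicle control wells.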
smiles,measurement,setting,value
C#Cc1c(F)ccc2cc(O)cc(-c3ncc4c(N5CC6CCC(C5)N6)nc(OCC56CCCN5CC(F)C6)nc4c3F)c12 (stereo unspecified) + CNC(C)C(=O)NC1CN(S(=O)(=O)c2cccc(S(=O)(=O)N3CCC4CCC(C(=O)NC(c5ccccc5)c5ccccc5)N4C(=O)C(NC(=O)C(C)NC)C3)c2)CCC2CCC(C(=O)NC(c3ccccc3)c3ccccc3)N2C1=O,pIC50,second compound 0.00316 µM,5.17
same,pIC50,second compound 0.01 µM,5.10
same,pIC50,second compound 0.0316 µM,5.39
same,pIC50,second compound 0.1 µM,5.44
same,pIC50,second compound 0.316 µM,> 7.50
same,pIC50,second compound 1 µM,> 7.50
same,"viability, T/C",[1],76.3%
same,"viability, T/C",[2],75.7%
same,"viability, T/C",[3],72.3%
same,"viability, T/C",[4],84.3%
same,"viability, T/C",[5],87%
same,"viability, T/C",[6],34.8%
same,"viability, T/C",[7],84.2%
same,"viability, T/C",[8],71.6%
same,"viability, T/C",[9],57.8%
same,"viability, T/C",[10],81.4%
same,"viability, T/C",[11],76%
same,"viability, T/C",[12],44.3%
same,"viability, T/C",[13],67.5%
same,"viability, T/C",[14],66.6%
same,"viability, T/C",[15],59.3%
same,"viability, T/C",[16],63.9%
same,"viability, T/C",[17],58.1%
same,"viability, T/C",[18],23.5%
same,"viability, T/C",[19],54.9%
same,"viability, T/C",[20],55%
same,"viability, T/C",[21],53.3%
same,"viability, T/C",[22],50.8%
same,"viability, T/C",[23],59%
same,"viability, T/C",[24],15.1%
same,"viability, T/C",[25],42.9%
same,"viability, T/C",[26],46.2%
same,"viability, T/C",[27],44.3%
same,"viability, T/C",[28],31.9%
same,"viability, T/C",[29],43.6%
same,"viability, T/C",[30],10.6%
same,"viability, T/C",[31],31.1%
same,"viability, T/C",[32],29%
same,"viability, T/C",[33],29.4%
same,"viability, T/C",[34],24.4%
same,"viability, T/C",[35],26.2%
same,"viability, T/C",[36],8.59%
C=C(F)C(=O)N1CCN(c2nc(OCC3CCCN3C)nc3c2CCN(c2cccc4cccc(Cl)c24)C3)CC1CC#N (stereo unspecified) + CNC(C)C(=O)NC1CN(S(=O)(=O)c2cccc(S(=O)(=O)N3CCC4CCC(C(=O)NC(c5ccccc5)c5ccccc5)N4C(=O)C(NC(=O)C(C)NC)C3)c2)CCC2CCC(C(=O)NC(c3ccccc3)c3ccccc3)N2C1=O,pIC50,second compound 0.00316 µM,6.02
same,pIC50,second compound 0.01 µM,5.99
same,pIC50,second compound 0.0316 µM,6.25
same,pIC50,second compound 0.1 µM,7.15
same,pIC50,second compound 0.316 µM,> 7.50
same,pIC50,second compound 1 µM,> 7.50
same,"viability, T/C",[1],90.9%
same,"viability, T/C",[2],69.3%
same,"viability, T/C",[3],67%
same,"viability, T/C",[4],54.3%
same,"viability, T/C",[5],25%
same,"viability, T/C",[6],0.13%
same,"viability, T/C",[7],66.7%
same,"viability, T/C",[8],61.8%
same,"viability, T/C",[9],68.5%
same,"viability, T/C",[10],50.4%
same,"viability, T/C",[11],9.6%
same,"viability, T/C",[12],0.1%
same,"viability, T/C",[13],62%
same,"viability, T/C",[14],54.2%
same,"viability, T/C",[15],46.8%
same,"viability, T/C",[16],46.6%
same,"viability, T/C",[17],8.82%
same,"viability, T/C",[18],0.1%
same,"viability, T/C",[19],59.1%
same,"viability, T/C",[20],39.9%
same,"viability, T/C",[21],38.5%
same,"viability, T/C",[22],38.2%
same,"viability, T/C",[23],11.7%
same,"viability, T/C",[24],0.1%
same,"viability, T/C",[25],38.1%
same,"viability, T/C",[26],29.4%
same,"viability, T/C",[27],35%
same,"viability, T/C",[28],29.3%
same,"viability, T/C",[29],13.1%
same,"viability, T/C",[30],0.44%
same,"viability, T/C",[31],37.9%
same,"viability, T/C",[32],32.2%
same,"viability, T/C",[33],32%
same,"viability, T/C",[34],19.4%
same,"viability, T/C",[35],9.16%
same,"viability, T/C",[36],0.2%
CCN1C(C(=O)NC23CCC(C(=O)O)(CC2)CC3)C(c2cccc(Cl)c2F)C2(C(=O)Nc3cc(Cl)ccc32)C12CCCCC2 (stereo unspecified) + CNC(C)C(=O)NC1CN(S(=O)(=O)c2cccc(S(=O)(=O)N3CCC4CCC(C(=O)NC(c5ccccc5)c5ccccc5)N4C(=O)C(NC(=O)C(C)NC)C3)c2)CCC2CCC(C(=O)NC(c3ccccc3)c3ccccc3)N2C1=O,pIC50,second compound 0.00316 µM,< 5.52
same,pIC50,second compound 0.01 µM,< 5.52
same,pIC50,second compound 0.0316 µM,< 5.52
same,pIC50,second compound 0.1 µM,< 5.52
same,pIC50,second compound 0.316 µM,> 8.02
same,pIC50,second compound 1 µM,> 8.02
same,"viability, T/C","second compound 0.00316 µM, first compound 0.00949 µM",86%
same,"viability, T/C","second compound 0.00316 µM, first compound 0.03 µM",113%
same,"viability, T/C","second compound 0.00316 µM, first compound 0.0949 µM",100%
same,"viability, T/C","second compound 0.00316 µM, first compound 0.3 µM",108%
same,"viability, T/C","second compound 0.00316 µM, first compound 0.949 µM",84.6%
same,"viability, T/C","second compound 0.00316 µM, first compound 3 µM",65.1%
same,"viability, T/C","second compound 0.01 µM, first compound 0.00949 µM",68.5%
same,"viability, T/C","second compound 0.01 µM, first compound 0.03 µM",95.9%
same,"viability, T/C","second compound 0.01 µM, first compound 0.0949 µM",83.7%
same,"viability, T/C","second compound 0.01 µM, first compound 0.3 µM",71.9%
same,"viability, T/C","second compound 0.01 µM, first compound 0.949 µM",63.3%
same,"viability, T/C","second compound 0.01 µM, first compound 3 µM",56.1%
same,"viability, T/C","second compound 0.0316 µM, first compound 0.00949 µM",82.5%
same,"viability, T/C","second compound 0.0316 µM, first compound 0.03 µM",85.6%
same,"viability, T/C","second compound 0.0316 µM, first compound 0.0949 µM",79.2%
same,"viability, T/C","second compound 0.0316 µM, first compound 0.3 µM",78.1%
same,"viability, T/C","second compound 0.0316 µM, first compound 0.949 µM",63.8%
same,"viability, T/C","second compound 0.0316 µM, first compound 3 µM",60.5%
same,"viability, T/C","second compound 0.1 µM, first compound 0.00949 µM",55.4%
same,"viability, T/C","second compound 0.1 µM, first compound 0.03 µM",61.9%
same,"viability, T/C","second compound 0.1 µM, first compound 0.0949 µM",66.2%
same,"viability, T/C","second compound 0.1 µM, first compound 0.3 µM",67.3%
same,"viability, T/C","second compound 0.1 µM, first compound 0.949 µM",60%
same,"viability, T/C","second compound 0.1 µM, first compound 3 µM",42.5%
same,"viability, T/C","second compound 0.316 µM, first compound 0.00949 µM",47.5%
same,"viability, T/C","second compound 0.316 µM, first compound 0.03 µM",55.3%
same,"viability, T/C","second compound 0.316 µM, first compound 0.0949 µM",45.5%
same,"viability, T/C","second compound 0.316 µM, first compound 0.3 µM",46.7%
same,"viability, T/C","second compound 0.316 µM, first compound 0.949 µM",49.4%
same,"viability, T/C","second compound 0.316 µM, first compound 3 µM",45.2%
same,"viability, T/C","second compound 1 µM, first compound 0.00949 µM",41.2%
same,"viability, T/C","second compound 1 µM, first compound 0.03 µM",31.3%
same,"viability, T/C","second compound 1 µM, first compound 0.0949 µM",32.4%
same,"viability, T/C","second compound 1 µM, first compound 0.3 µM",35.4%
same,"viability, T/C","second compound 1 µM, first compound 0.949 µM",30.5%
same,"viability, T/C","second compound 1 µM, first compound 3 µM",27.8%
